Data published in publication PMC8997165, “Transcriptional CDK Inhibitors as Potential Treatment Option for Testicular Germ Cell Tumors” (Cancers, 2022).
Blank lines part the entries; values can stand above or below the compound they belong to.

Tests used:
Type in all cases: cell-based, human
MPAF cells = test: XTT cell viability assay, MPAF fibroblast control; details: for IC50: XTT viability
Procedure: (§1) The following cell lines were used 2102EP, 2102EP-R, NCCIT, NCCIT-R (all ECs), TCam2 (seminoma cell line), FS1 (Sertoli cell line) and MPAF (human adult fibroblast cell line). Cells were cultivated as described previously. In brief, the ECs were cultivated in Dulbecco’s modified Eagle’s medium (DMEM) supplemented with 10% fetal bovine serum (FBS), 1% penicillin–streptomycin and […] L-glutamine. FS1 cells were grown in DMEM supplemented with 20% FSB, 1% penicillin–streptomycin, 200 mM L-glutamine and 1% nonessential amino acids (NEAA). MPAF cells were cultured in DMEM supplemented with 10% FBS, 1% penicillin–streptomycin, 200 mM L-glutamine and 1% NEAA. TCam2 cell line was cultured in RPMI medium supplemented with 10% FBS, 1% penicillin–streptomycin and […] L-glutamine. All cell lines were kept at 37 °C and 7.5% CO2. 2102EP and NCCIT were a kind gift from Prof. Dr. L. Looijenga (Princess Máxima Center for Pediatric Oncology, Utrecht, The Netherlands). Cisplatin-resistant lines 2102EP-R and NCCIT-R were obtained from PD Dr. F. Honecker (Breast and Tumor Center, ZeTup Silberturm, St. Gallen, Switzerland). MPAFs were a kind gift from […] (Bonn University, Institute of Reconstructive Neurobiology, Bonn, Germany). FS1 cells were obtained from Prof. Dr. V. Schumacher (Boston Children’s Hospital, Department of Urology; Harvard Medical School, Department of Surgery, Boston, MA, USA).
(§2) The assay was performed based on the reduction in XTT tetrazolium salt as described previously. In summary, 3000 cells were seeded per well of a 96-well cell culture plate in 100 µL of cell culture medium. The next day, cells were treated with CDK inhibitor or CDK degrader for 24/48/72 h. For XTT assay, 0.6 mg/mL XTT sodium salt was dissolved in cell culture medium (DMEM or RPMI) and supplemented with 25 µM electron carrier N-methyl dibenzopyrazine methyl sulfate (PMS). A total of 50 µL of XTT/PMS was added to each well and incubated for 4 h at 37 °C, 7.5% CO2. For readout, absorption was measured at 450 nm and 650 nm. Specific XTT signal (450 nm) was subtracted by nonspecific absorbance (650) and blank (cell culture medium). Averages of technical triplicates were calculated, and treated sample was referenced to the corresponding dimethyl sufoxide (DMSO) control. Experiment was repeated several times to obtain biological replicates. For statistical analysis, two-tailed Student’s t-test was applied.

TGCT cell lines = test: XTT cell viability assay, summarised over TGCT tumor cell lines
Procedure: as §1, §2

2102EP cells = test: XTT cell viability assay, 2102EP
Procedure: as §1, §2

2102EP-R cells = test: XTT cell viability assay, 2102EP-R (cisplatin-resistant)
Procedure: as §1, §2

NCCIT cells = test: XTT cell viability assay, NCCIT
Procedure: as §1, §2

NCCIT-R cells = test: XTT cell viability assay, NCCIT-R (cisplatin-resistant)
Procedure: as §1, §2

TCam2 cells = test: XTT cell viability assay, TCam2
Procedure: as §1, §2

FS1 cells = test: XTT cell viability assay, FS1 Sertoli control
Procedure: as §1, §2

2102EP and NCCIT cells = test: 7AAD/AnnexinV FACS apoptosis analysis, 2102EP and NCCIT; details: 10 nM, 24 and 48 h
Procedure: (§3) Cells were seeded in 6-well cell culture plates (1.5 × 10^5 cells/well). […] For cell cycle analysis, cells were harvested after 20 h of treatment and resuspended in PBS. Ice-cold methanol was added dropwise while shaking until 70% methanol v/v was reached. Cells were incubated for 2 h at 4 °C and subsequently washed twice with cold PBS. Staining (2 µg/mL Hoechst-33342, 50 µg/mL RNaseA in PBS) was performed for 30 min at 37 °C. The cell cycle distribution was measured in an FACS Canto (BD BioSciences, Heidelberg, Germany) and analyzed using FlowJo™ v10.8 Software (BD BioSciences, Heidelberg, Germany). For apoptosis analysis, PE AnnexinV Apoptosis Detection Kit with 7-AAD (BioLegend, San Diego, CA USA) was used according to the manufacturer’s manual. Measurement was performed in an FACS Canto while analysis was performed in the corresponding BD FACSDiva software^TM (BD BioSciences, Heidelberg, Germany). Two-tailed Student’s t-test was applied for calculation of significance.

[1] = tested on: TCam2, FS1 and MPAF cells; test: 7AAD/AnnexinV FACS apoptosis analysis, TCam2, FS1 and MPAF; details: 10 nM, 24 and 48 h
Procedure: as §3

[2] = tested on: TGCT and control cell lines; test: Hoechst-FACS cell cycle analysis; details: 20 h; NVP2 and SY0351 10 nM, YKL-5-124 and THZ531 100 nM
Procedure: as §3

Compound: CCc1cnn2c(NCc3ccc[n+]([O-])c3)cc(N3CCCC[C@H]3CCO)nc12 [Dinaciclib, dinaciclib]
- sensitivity (XTT viability) (MPAF cells): almost resistant
- viability (XTT) (TGCT cell lines; EC cell lines (2102EP, 2102EP-R, NCCIT, NCCIT-R), 1 nM): strong decrease in viability

- IC50 (TGCT cell lines; Homo sapiens, 72 h, tumor (TGCT) cell lines, XTT viability, read-out: IC50 at 72 h, range over tumor cell lines): 0.0075 to 0.273 µM
Compound: CN1CC[C@H](c2c(O)cc(O)c3c(=O)cc(-c4ccccc4Cl)oc23)[C@H](O)C1 [Flavo-Piridol, flavopiridol]
- IC50 (2102EP cells; Homo sapiens, 24 h): > 1 µM
- IC50 (2102EP cells; Homo sapiens, 48 h): 0.0399 µM
- IC50 (2102EP cells; Homo sapiens, 72 h): 0.018 µM
- IC50 (2102EP-R cells; Homo sapiens, 24 h): > 1 µM
- IC50 (2102EP-R cells; Homo sapiens, 48 h): 0.0219 µM
- IC50 (2102EP-R cells; Homo sapiens, 72 h): 0.00756 µM
- IC50 (NCCIT cells; Homo sapiens, 24 h): 0.71 µM
- IC50 (NCCIT cells; Homo sapiens, 48 h): 0.0219 µM
- IC50 (NCCIT cells; Homo sapiens, 72 h): 0.0341 µM
- IC50 (NCCIT-R cells; Homo sapiens, 24 h): 0.639 µM
- IC50 (NCCIT-R cells; Homo sapiens, 48 h): 0.107 µM
- IC50 (NCCIT-R cells; Homo sapiens, 72 h): 0.0433 µM
- IC50 (TCam2 cells; Homo sapiens, TCam2, 24 h): > 1 µM
- IC50 (TCam2 cells; Homo sapiens, TCam2, 48 h): 0.582 µM
- IC50 (TCam2 cells; Homo sapiens, TCam2, 72 h): 0.273 µM
- IC50 (FS1 cells; Homo sapiens, FS1, 24 h): > 1 µM
- IC50 (FS1 cells; Homo sapiens, FS1, 48 h): 0.696 µM
- IC50 (FS1 cells; Homo sapiens, FS1, 72 h): 0.0915 µM
- sensitivity (XTT viability) (MPAF cells): almost resistant
- IC50 (MPAF cells; Homo sapiens, Fibroblast, 24 h): > 1 µM
- IC50 (MPAF cells; Homo sapiens, Fibroblast, 48 h): > 1 µM
- IC50 (MPAF cells; Homo sapiens, Fibroblast, 72 h): > 1 µM
- viability (XTT) (TGCT cell lines; EC cell lines (2102EP, 2102EP-R, NCCIT, NCCIT-R), 50 nM): strong decrease in viability

Compound: COC[C@@H](C)N[C@H]1CC[C@H](Nc2cc(-c3cccc(NCC4(C#N)CCOCC4)n3)c(Cl)cn2)CC1 [NVP2]
- IC50 (2102EP cells; 24 h): 0.503 µM
- IC50 (2102EP cells; 48 h): 0.0105 µM
- IC50 (2102EP cells; 72 h): 0.0061 µM
- IC50 (2102EP-R cells; 24 h): 0.884 µM
- IC50 (2102EP-R cells; 48 h): 0.0112 µM
- IC50 (2102EP-R cells; 72 h): 0.0086 µM
- IC50 (NCCIT cells; 24 h): 0.0906 µM
- IC50 (NCCIT cells; 48 h): 0.0407 µM
- IC50 (NCCIT cells; 72 h): 0.0065 µM
- IC50 (NCCIT-R cells; 24 h): 0.104 µM
- IC50 (NCCIT-R cells; 48 h): 0.0171 µM
- IC50 (NCCIT-R cells; 72 h): 0.0122 µM
- IC50 (TCam2 cells; TCam2, 24 h): 0.216 µM
- IC50 (TCam2 cells; TCam2, 48 h): 0.06 µM
- IC50 (TCam2 cells; TCam2, 72 h): 0.0161 µM
- IC50 (FS1 cells; FS1, 24 h): 0.0982 µM
- IC50 (FS1 cells; FS1, 48 h): 0.0335 µM
- IC50 (FS1 cells; FS1, 72 h): 0.0089 µM
- IC50 (MPAF cells; 24 h): > 1 µM
- IC50 (MPAF cells; 48 h): > 1 µM
- IC50 (MPAF cells; 72 h): > 1 µM
- viability (XTT) (TGCT cell lines; TGCT cell lines and FS1 cell line, 10 nM): effectively reduced the viability
- apoptosis, fold compared to the control (2102EP and NCCIT cells): up to 5.5 fold
- fold change in apoptotic cells [1]: up to 3.3 fold
- effect on cell cycle [2]: only mild effects on the cell cycle
